The target in the assay is T1, human B-Raf (Homo sapiens, UniProt P15056).
T1 construct: Flag; GST; made in house; host or cells: Sf9 insect cells (B-Raf); E. coli (MEK1-GST)
As to the kind of experiment: B-Raf Kinase to MEK1 ELISA. The class given is biochemical. The following applies: for inhibition at 10 µM: read-out: % Inhib./10 uM. The procedure, abridged: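 Flag/GST-tagged human B-Raf (Sf9, ~20 ng/point) phosphorylates non-active GST-MEK1 (50 nM final) with ATP and MgCl2 in MOPS pH 7.2 buffer, 60 min at RT. Product is captured on anti-GST plates; MEK1 pSer217/221 is read by phospho-antibody plus europium conjugate (DELFIA).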

[1] abbreviates: median, cpd concentrations from 10 μM to 30 nM in half log dilutions, read-out: Median IC50.

The structures appear in SMILES notation. Where two headings read alike, the source gives them in different places.

T1 sequence (P15056 whole entry): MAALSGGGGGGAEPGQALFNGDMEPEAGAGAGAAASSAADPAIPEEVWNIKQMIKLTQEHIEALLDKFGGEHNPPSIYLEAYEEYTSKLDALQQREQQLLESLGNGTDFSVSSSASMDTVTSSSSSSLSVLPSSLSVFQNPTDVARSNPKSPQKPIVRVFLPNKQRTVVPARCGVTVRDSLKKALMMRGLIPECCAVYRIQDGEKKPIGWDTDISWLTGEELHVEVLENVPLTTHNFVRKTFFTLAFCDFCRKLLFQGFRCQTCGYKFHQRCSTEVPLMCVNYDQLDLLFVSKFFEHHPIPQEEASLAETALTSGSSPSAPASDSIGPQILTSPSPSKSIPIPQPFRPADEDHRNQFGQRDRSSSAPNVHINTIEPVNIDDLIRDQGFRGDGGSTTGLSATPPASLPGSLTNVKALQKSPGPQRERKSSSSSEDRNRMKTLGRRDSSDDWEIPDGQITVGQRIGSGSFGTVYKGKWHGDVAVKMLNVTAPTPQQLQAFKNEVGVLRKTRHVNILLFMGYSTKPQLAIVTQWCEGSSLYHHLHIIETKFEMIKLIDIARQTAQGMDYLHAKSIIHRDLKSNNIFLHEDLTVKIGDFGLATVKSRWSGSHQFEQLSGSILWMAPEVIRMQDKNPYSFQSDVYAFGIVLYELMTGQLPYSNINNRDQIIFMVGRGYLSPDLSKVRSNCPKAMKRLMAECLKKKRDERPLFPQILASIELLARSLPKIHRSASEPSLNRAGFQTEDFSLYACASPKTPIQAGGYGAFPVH

In general, IC50 refers to the concentration at which inhibition is half-maximal. Compound `CN(C)CCNc1cc(-c2cc3nccc(-c4cccc(NC(=O)c5cccc(C(F)(F)F)c5)c4)n3n2)ccn1` [Example 266, N-{3-[2-(2-{[2-(dimethylamino)ethyl]amino}pyridin-4-yl)pyrazolo[1,5-a]pyrimidin-7-yl]phenyl}-3-(trifluoromethyl)benzamide] returned an IC50 of 53.3 nM. The “% Inhib./10 uM” value (single point assay, 10 uM) was 100%.

Turning to `Cn1cc(-c2cnn3c(-c4cccc(NC(=O)c5cccc(C(F)(F)F)c5)c4)ccnc23)cn1` [Example 308, N-{3-[3-(1-methyl-1H-pyrazol-4-yl)pyrazolo[1,5-a]pyrimidin-7-yl]phenyl}-3-(trifluoromethyl)benzamide], the inhibition at 10 µM was determined as 86%. Further, the half-inhibitory concentration (IC50) under setting [1] is 281 nM.

`Cn1cccc1C(=O)Nc1cccc(-c2ccnc3cc(-c4ccncc4)nn23)c1` [Example 236, 1-methyl-N-[3-(2-pyridin-4-ylpyrazolo[1,5-a]pyrimidin-7-yl)phenyl]-1H-pyrrole-2-carboxamide]: the inhibition at 10 µM worked out at 50%.

Consider `O=C(Nc1cccc(-c2ccnc3cc(-c4cccc(C(F)(F)F)c4)nn23)c1)c1cccc(C(F)(F)F)c1` [Example 137, 3-(trifluoromethyl)-N-(3-{2-[3-(trifluoromethyl)phenyl]pyrazolo[1,5-a]pyrimidin-7-yl}phenyl)benzamide], for which, under setting [1], the IC50 is > 10000 nM.

Take `O=C(Nc1cccc(-c2ccnc3c(-c4ccncc4)cnn23)c1)Nc1ccc(F)c(C(F)(F)F)c1` [Example 193, N-[4-fluoro-3-(trifluoromethyl)phenyl]-N′-[3-(3-pyridin-4-ylpyrazolo[1,5-a]pyrimidin-7-yl)phenyl]urea]: the inhibition at 10 µM was 79%. The concentration for half-maximal inhibition (IC50) under setting [1] turned out to be 500 nM.

As for `O=C(O)c1cccc(-c2cnn3c(-c4cccc(NC(=O)c5cccc(C(F)(F)F)c5)c4)ccnc23)c1` [Example 314, 3-[7-(3-{[3-(trifluoromethyl)benzoyl]amino}phenyl)pyrazolo[1,5-a]pyrimidin-3-yl]benzoic acid], the inhibition at 10 µM stood at 82%. Further, the IC50 under setting [1] came out at 514 nM.

As for `O=C(Nc1cccc(-c2ccnc3cc(-c4ccc(CO)cc4)nn23)c1)c1cccc(C(F)(F)F)c1` [Example 135, N-(3-{2-[4-(hydroxymethyl)phenyl]pyrazolo[1,5-a]pyrimidin-7-yl}phenyl)-3-(trifluoromethyl)benzamide], the inhibition at 10 µM was 32%. Moreover, under setting [1], the IC50 is > 10000 nM.

Take `CCOC(=O)c1cnn2c(-c3cccc(NS(=O)(=O)c4cccc(C(F)(F)F)c4)c3)ccnc12` [Example 12, ethyl 7-[3-({[3-(trifluoromethyl)phenyl]sulfonyl}amino)phenyl]pyrazolo[1,5-a]pyrimidine-3-carboxylate]: the inhibition at 10 µM turned out to be 7%. Also, the IC50 under setting [1] is > 20000 nM.

Regarding `COCCC(=O)Nc1cccc(-c2cnn3c(-c4cccc(NC(=O)c5cccc(C(F)(F)F)c5)c4)ccnc23)c1` [Example 254, N-[3-(3-{3-[(3-methoxypropanoyl)amino]phenyl}pyrazolo[1,5-a]pyrimidin-7-yl)phenyl]-3-(trifluoromethyl)benzamide], the inhibition at 10 µM came out at 82%. Under setting [1], the IC50 was determined as 90 nM.

As to `COC(=O)c1ccc(-c2cnn3c(-c4cccc(NC(=O)c5cccc(C(F)(F)F)c5)c4)ccnc23)cc1` [Example 297, methyl 4-[7-(3-{[3-(trifluoromethyl)benzoyl]amino}phenyl)pyrazolo[1,5-a]pyrimidin-3-yl]benzoate], the IC50 amounted to 2190 nM and the inhibition at 10 µM is 75%.

For the compound `O=C(Nc1cccc(-c2ccnc3c(Br)cnn23)c1)c1ccc(F)c(C(F)(F)F)c1` [Example 163, N-[3-(3-bromopyrazolo[1,5-a]pyrimidin-7-yl)phenyl]-4-fluoro-3-(trifluoromethyl)benzamide], the inhibition at 10 µM was 74%. Moreover, under setting [1], the IC50 is 4200 nM.

Turning to `CCOC(=O)c1cnn2c(-c3cccc(NC(=O)Nc4ccc(Cl)c(Cl)c4)c3)ccnc12` [Example 40, ethyl 7-[3-({[(3,4-dichlorophenyl)amino]carbonyl}amino)phenyl]pyrazolo[1,5-a]pyrimidine-3-carboxylate], the inhibition at 10 µM was 81%. The IC50 under setting [1] turned out to be 340 nM.

`O=C(Nc1cccc(-c2ccnc3cc(-c4ccnc(NCCN5CCC(O)CC5)c4)nn23)c1)c1cccc(C(F)(F)F)c1` [Example 263, N-{3-[2-(2-{[2-(4-hydroxypiperidin-1-yl)ethyl]amino}pyridin-4-yl)pyrazolo[1,5-a]pyrimidin-7-yl]phenyl}-3-(trifluoromethyl)benzamide] displayed an IC50 of 65.8 nM. Also, the “% Inhib./10 uM” value (single point assay, 10 uM) was determined as 98%.

With `CCOC(=O)c1cnn2c(-c3cccc(NC(=O)Nc4cc(C)no4)c3)ccnc12` [Example 247, ethyl7-[3-({[(3-methylisoxazol-5-yl)amino]carbonyl}amino)phenyl]pyrazolo[1,5-a]pyrimidine-3-carboxylate], the inhibition at 10 µM turned out to be 15%. The IC50 under setting [1] was > 10000 nM.

As for `O=C(Nc1cccc(-c2ccnc3c(-c4ccc(C(F)(F)F)cc4)cnn23)c1)c1cccc(C(F)(F)F)c1` [Example 292, 3-(trifluoromethyl)-N-(3-{3-[4-(trifluoromethyl)phenyl]pyrazolo[1,5-a]pyrimidin-7-yl}phenyl)benzamide], the inhibition at 10 µM was 26%. Moreover, under setting [1], the IC50 is > 10000 nM.

With `CCOC(=O)c1cnn2c(-c3cccc(NC(=O)Nc4cc(C(F)(F)F)cc(C(F)(F)F)c4)c3)ccnc12` [Example 16, ethyl 7-{3-[({[3,5-bis(trifluoromethyl)phenyl]amino}carbonyl)amino]phenyl}pyrazolo[1,5-a]pyrimidine-3-carboxylate], the inhibition at 10 µM was 31%. Under setting [1], the IC50 worked out at 3780 nM.

With `CN(C)CCc1ccccc1-c1cnn2c(-c3cccc(NC(=O)c4cccc(C(F)(F)F)c4)c3)ccnc12` [Example 280, N-[3-(3-{2-[2-(dimethylamino)ethyl]phenyl}pyrazolo[1,5-a]pyrimidin-7-yl)phenyl]-3-(trifluoromethyl)benzamide], the inhibition at 10 µM came out at 76%. Also, under setting [1], the IC50 stood at 318 nM.

In the case of `CCOC(=O)c1cnn2c(-c3cccc(NC(=O)c4ccc(F)cc4C(F)(F)F)c3)ccnc12` [Example 76, ethyl 7-(3-{[4-fluoro-2-(trifluoromethyl)benzoyl]amino}phenyl)pyrazolo[1,5-a]pyrimidine-3-carboxylate], the inhibition at 10 µM amounted to 0%. In addition, the IC50 under setting [1] was > 10000 nM.

`CN1CCN(CCCC#Cc2cnn3c(-c4cccc(NC(=O)c5cccc(C(F)(F)F)c5)c4)ccnc23)CC1` [Example 279, N-(3-{3-[5-(4-methylpiperazin-1-yl)pent-1-yn-1-yl]pyrazolo[1,5-a]pyrimidin-7-yl}phenyl)-3-(trifluoromethyl)benzamide] showed an IC50 of 842 nM.

For `O=C(Nc1cccc(-c2ccnc3c(-c4cn[nH]c4)cnn23)c1)c1cccc(C(F)(F)F)c1` [Example 275, N-{3-[3-(1H-pyrazol-4-yl)pyrazolo[1,5-a]pyrimidin-7-yl]phenyl}-3-(trifluoromethyl)benzamide], the half-inhibitory concentration (IC50) turned out to be 84 nM and the inhibition at 10 µM was found to be 89%.

As for `CN(C)CCOC(=O)c1cnn2c(-c3cccc(NC(=O)c4cccc(C(F)(F)F)c4)c3)ccnc12` [Example 127, 2-(dimethylamino)ethyl 7-(3-{[3-(trifluoromethyl)benzoyl]amino}phenyl)pyrazolo[1,5-a]pyrimidine-3-carboxylate], the inhibition at 10 µM turned out to be 54%. Moreover, under setting [1], the half-maximal inhibitory concentration (IC50) turned out to be 7070 nM.

As for `Nc1cccc(-c2cnn3c(-c4cccc(NC(=O)c5cccc(C(F)(F)F)c5)c4)ccnc23)c1` [Example 156, N-{3-[3-(3-aminophenyl)pyrazolo[1,5-a]pyrimidin-7-yl]phenyl}-3-(trifluoromethyl)benzamide], the half-inhibitory concentration (IC50) is 100 nM and the inhibition at 10 µM is 86%.

Take `CCOC(=O)c1cnn2c(-c3cccc(NC(=O)c4ccc(C)c(C(F)(F)F)c4)c3)ccnc12` [Example 26, ethyl 7-(3-{[4-methyl-3-(trifluoromethyl)benzoyl]amino}phenyl)pyrazolo[1,5-a]pyrimidine-3-carboxylate]: under setting [1], the IC50 amounted to 500 nM. The inhibition at 10 µM (single point assay, 10 uM) amounted to 76%.

As for `CCOC(=O)c1cnn2c(-c3ccc(OC)c(NC(=O)c4cccc(C(F)(F)F)c4)c3)ccnc12` [Example 88, ethyl 7-(4-methoxy-3-{[3-(trifluoromethyl)benzoyl]amino}phenyl)pyrazolo[1,5-a]pyrimidine-3-carboxylate], the inhibition at 10 µM is 14%. For the same compound, the IC50 under setting [1] is > 10000 nM.

For `CCOC(=O)c1cnn2c(-c3cccc(NC(=O)c4ccc(Cl)cc4)c3)ccnc12` [Example 6, ethyl 7-{3-[(4-chlorobenzoyl)amino]phenyl}pyrazolo[1,5-a]pyrimidine-3-carboxylate], the inhibition at 10 µM turned out to be 38%. For the same compound, the half-maximal inhibitory concentration (IC50) under setting [1] was > 20000 nM.

Turning to `O=Cc1ccc(-c2cnn3c(-c4cccc(NC(=O)c5cccc(C(F)(F)F)c5)c4)ccnc23)o1` [Example 313, N-{3-[3-(5-formyl-2-furyl)pyrazolo[1,5-a]pyrimidin-7-yl]phenyl}-3-(trifluoromethyl)benzamide], the inhibition at 10 µM turned out to be 78%. Also, under setting [1], the IC50 is > 10000 nM.

Turning to `CN(C)C1CCN(c2cc3nccc(-c4cccc(NC(=O)c5cccc(C(F)(F)F)c5)c4)n3n2)C1` (centres unmarked) [Example 209, N-(3-{2-[3-(dimethylamino)pyrrolidin-1-yl]pyrazolo[1,5-a]pyrimidin-7-yl}phenyl)-3-(trifluoromethyl)benzamide], the inhibition at 10 µM turned out to be 24%. Besides, the IC50 under setting [1] was > 10000 nM.

Regarding `O=C(Nc1cccc(-c2ccnc3cc(N4CCNCC4)nn23)c1)c1cccc(C(F)(F)F)c1` [Example 208, N-[3-(2-piperazin-1-ylpyrazolo[1,5-a]pyrimidin-7-yl)phenyl]-3-(trifluoromethyl)benzamide], the midpoint of inhibition, the IC50, lay at 6150 nM. For the same compound, the “% Inhib./10 uM” value (single point assay, 10 uM) was 54%.

Source of the values: US20070219186A1, “Pyrazolo[1,5-A]pyrimidine derivatives and methods of use thereof” (priority 2006, published 2007).
